Patent US4803208A, “Opiate agonists and antagonists” (Sloan-Kettering Institute For Cancer Research, priority 1985, dated 1989)
Several values for one entry are separate records, joined by “and”; a condition that tells them apart may be missing. Identical values can stand only once. Entries after “also recorded” stand apart in the source; their conditions may differ. Counter-ions that a name gives are not always drawn. Like-named read-outs stand apart in the source and are kept apart here.

Experiments:
mice [1] = test: Oxymorphonazine analgesia in vivo (Tail-Flick Assay); parameters: species or system mouse; details: 25 μg in 5 μl of artificial CSF; for Analgesia (percent), 20 hr.: groups differ p<0.015, Fisher's Exact Test
Method: Mice were injected with either oxymorphone or oxymorphonazine (both 25 μg in 5 μl of artificial CSF) under Ethrane/oxygen anesthesia and tested for analgesia at the stated time. Analgesia was determined by Tail-Flick Assay. Quantal criteria, the doubling of the baseline latency for each individual animal, was used. At 20 hours, the oxymorphone and oxymorphonazine groups differed from each other at p<0.015 level, as determined by Fisher's Exact Test.

Duration of action = type: in vivo; details: compared to conventional / currently available opiates
opiate receptors [2] = biological target: T1, opiate receptors (Rattus norvegicus, UniProt P33535); test: biochemical; type: binding; details: for inhibition at 2 µM: 0.5 h, read-out: Change in Binding (Percent), [^3 H]dihydromorphine; for irreversible inhibition of [^3 H]dihydromorphine binding (in words): 2 μM, various concentrations in b75 (FIG. 2)
T1 construct: Rat brain homogenates were prepared as described; from tissue; host or cells: rat brain homogenate / membranes
Method: Results are from a single experiment which has been replicated three times.
(§1) In brief, brain membranes were prepared and triplicate samples incubated with [^3 H] labelled ligands and designated drugs for 30 minutes at 25° C., followed by filtration over Whatman GF/B filters. […] Specific binding is defined as the difference in binding in the presence and absence of levallorphan (1 uM). […] Each tissue wash included incubation for 10 min. at 37° C., centrifugation and resuspension. Irreversibility experiments included four washes before binding assays were performed, unless otherwise stated.
(§2) To determine which compounds did irreversibly bind to the receptor, membranes were incubated with the various drugs (2 μM) and then the free and reversibly bound drug washed away (Table 2).
(§3) Rat brain membranes were prepared and incubated with the above drugs (2 μM) for 30 min at 25° C. and the tissue was then washed four times as described in the text to remove reversibly bound material. The results represent the means ±s.e.m. of three separate experiments utilizing [^3 H]D-ala^2 -D-leu^5 -enkephal in (1 nM) and [^3 H]dihydromorphine (0.8 nM). […] After 15 min the solution was added to tissue.
After incubating membranes with the specified drug, the membranes were extensively washed and a binding assay with [^3 H]dihydromorphine performed.

opiate receptors [3] = type: binding, rat; details: for Change in Binding (Percent), [^3 H]D-ala^2 -D-leu^5 -enkephalin: compound 2 μM, 30 min 25° C., four washes, ligand 1 nM, mean ± s.e.m. of three experiments; for irreversible inhibition of [^3 H]D-ala^2 -D-leu^5 -enkephalin binding (in words): 2 μM
Method: as §1, §2, §3

opiate receptors [4] = test: Irreversible opiate receptor binding/blocking (general statements); details: for potency of irreversible block of opiate binding in vitro relative to corresponding hydrazone: azine vs corresponding hydrazone; for removal of reversible ligand by washing (in words): two washes with incubation at 37° for 10 min
Method: as §1

[5] = Reaction of hydrazones to azines in solution; details: acidic aqueous solutions; absolute ethanol or water/acetic acid (1%), 15 min
opiate receptors [6] = biological target: T1, opiate receptors; test: biochemical; type: binding
Method: as §1
IC50 values were determined by least square fits of a log-probit curve. The results are the means ±s.e.m. of three IC50 values determined in separate experiments.

mice [7] = test: In vivo actions of naltrexone-oxymorphonazine (tailflick latencies); parameters: species or system mouse; details: for Tailflick Latencies, Prior: baseline prior to 10 mg/kg s.c.
Method: Groups of mice were injected subcutaneously with the stated drug and latencies in the tailflick test determined and compared to those obtained prior to testing. […] This compares with an analgesic rate of 100% of animals receiving oxymorphone HCl in other control experiments.

rats [8] = details: cited from earlier work
opiate receptors [9] = biological target: T1, opiate receptors; test: Irreversible inhibition of ^3 H-DHM binding, 100 nM, two washes; details: for ^3 H-DHM Binding: 100 nM, 30 min 25° C., two washes, DHM 1 nM, control 3447 ± 273 cpm, triplicate ± S.E.M.; for inhibition at 0.1 µM: 0.5 h, read-out: ^3 H-DHM Binding, change
Method: (§4) Each wash consisted of centrifugation, incubation at 37° for 10 min and centrifugation again. […] Bindig was then performed with either ^3 H-D-ala^2 -D-leu^5 -enkephalin (DADL) or ^3 H-dihydromorphine (DHM) both at 1 nM. Specific binding was determined as that displaceable by levallorphan at 1000 nM. All values represent the means of triplicate samples ±S.E.M.

opiate receptors [10] = test: Irreversible inhibition of ^3 H-DADL binding, 100 nM, two washes; parameters: species or system rat; details: for ^3 H-DADL Binding: 30 min 25° C., DADL 1 nM, control 1800 ± 53 cpm, triplicate ± S.E.M.; for ^3 H-DADL Binding, change: vs control, 30 min
Method: as §4

growth hormone release = test: Growth hormone release in vivo
prolactin release = test: Prolactin release in vivo
[11] = tested on: high affinity, or mu1, binding sites; details: Pasternak et al.; Zhang and Pasternak; cited from earlier work
rats [12] = type: in vivo, rat; details: 50 mg/kg intravenously
Method: They were then food deprived for 24 hours but allowed free access to water. Five rats received saline, four received naloxone and three naloxazone. […] The animals were then given free access to food for 1 hour and their weight gain noted. Thus, eating was measured 24 hours after the administration of the drugs and after 24 hours of food deprivation.

[13] = compound 2 μM, 30 min 25° C., four washes, ligand 0.8 nM, mean ± s.e.m. of three experiments

T1 sequence (P33535 whole entry): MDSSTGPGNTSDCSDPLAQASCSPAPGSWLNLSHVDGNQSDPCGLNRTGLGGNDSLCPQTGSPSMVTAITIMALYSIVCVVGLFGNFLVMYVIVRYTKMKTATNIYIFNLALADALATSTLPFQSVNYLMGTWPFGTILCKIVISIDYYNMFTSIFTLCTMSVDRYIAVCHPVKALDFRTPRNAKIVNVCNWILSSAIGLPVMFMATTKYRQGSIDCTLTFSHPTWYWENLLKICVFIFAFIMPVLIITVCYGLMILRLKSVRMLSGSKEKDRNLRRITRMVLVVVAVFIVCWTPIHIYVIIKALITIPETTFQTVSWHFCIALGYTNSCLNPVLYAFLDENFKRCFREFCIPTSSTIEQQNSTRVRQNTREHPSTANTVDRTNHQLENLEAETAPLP

## CN1CCC23c4c5ccc(O)c4OC2C(=NN=C2CCC4(O)C6Cc7ccc(O)c8c7C4(CCN6C)C2O8)CCC3(O)C1C5 (stereo not drawn) [Oxymorphonazine, oxymorphonazine]
Mice [1]
  Analgesia (percent), 1 hr.: 100%
  Analgesia (percent), 4 hr.: 100%
  Analgesia (percent), 10 hr.: 100%
  Analgesia (percent), 20 hr.: 44%
Duration of action
  duration of action (in words): lasting far longer than conventional opiates
Opiate receptors [2]
  inhibition at 2 µM: 71 ± 4%
Opiate receptors [3]
  Change in Binding (Percent), [^3 H]D-ala^2 -D-leu^5 -enkephalin: -59 ± 3%
Opiate receptors [4]
  potency of irreversible block of opiate binding in vitro relative to corresponding hydrazone: 20-40 fold

## NN=C1CCC2(O)C3Cc4ccc(O)c5c4C2(CCN3CC2CC2)C1O5 (stereo not drawn) [Naltrexazone, naltrexazone]
[5]
  stability in solution: reaction to azine (in words): A trace amount of azine was present
Opiate receptors [2]
  irreversible inhibition of [^3 H]dihydromorphine binding (in words): small amount of inhibition
Opiate receptors [2]; [13]
  inhibition at 2 µM: 31 ± 26%
Opiate receptors [6]
  IC50: 1.7 ± 0.2 nM
Opiate receptors [3]
  irreversible inhibition of [^3 H]D-ala^2 -D-leu^5 -enkephalin binding (in words): small amount of inhibition
  Change in Binding (Percent), [^3 H]D-ala^2 -D-leu^5 -enkephalin: -17 ± 19%

## O=C1CC[C@@]2(O)[C@H]3Cc4ccc(O)c5c4[C@@]2(CCN3CC2CC2)[C@H]1O5 [Naltrexone, naltrexone]
Mice [7]; 10 mg/kg s.c.
  Tailflick Latencies, After 20 min: 2.37 ± 0.31 s
  Tailflick Latencies, After 40 min: 2.59 ± 0.35 s
Mice [7]
  Tailflick Latencies, Prior: 2.63 ± 0.27 s
Opiate receptors [4]
  removal of reversible ligand by washing (in words): effectively removed
Rats [8]
  suppression of eating behavior (known): effectively suppress eating behavior in rats

## CN1CC[C@]23c4c5ccc(O)c4O[C@H]2C(=O)CC[C@@]3(O)[C@H]1C5 [oxymorphone HCl]
Mice [7]; other control experiments
  analgesic rate: 100%

## Oc1ccc2c3c1OC1C(=NN=C4CCC5(O)C6Cc7ccc(O)c8c7C5(CCN6CC5CC5)C4O8)CCC4(O)C(C2)N(CC2CC2)CCC314 (stereo not drawn) [Naltrexonazine, naltrexonazine]
Duration of action
  duration of action (in words): in the order of days
Duration of action; listed as naltrexonazine
  duration of action (in words): lasting far longer than conventional opiates
Opiate receptors [2]; [13]
  inhibition at 2 µM: 88 ± 12%
Opiate receptors [6]
  IC50: 1.16 nM
Opiate receptors [3]
  Change in Binding (Percent), [^3 H]D-ala^2 -D-leu^5 -enkephalin: -97 ± 3%
Opiate receptors [9]
  ^3 H-DHM Binding: 1183 ± 128 cpm
  inhibition at 0.1 µM: 66%
Mice [7]; 10 mg/kg s.c.
  Tailflick Latencies, After 20 min: 2.50 ± 0.36 s
  Tailflick Latencies, After 40 min: 2.74 ± 0.49 s
Mice [7]
  Tailflick Latencies, Prior: 2.50 ± 0.34 s
Opiate receptors [10]
  ^3 H-DADL Binding: 653 ± 85 cpm
  ^3 H-DADL Binding, change: -65%
Opiate receptors [4]
  potency of irreversible block of opiate binding in vitro relative to corresponding hydrazone: 20-40 fold
Opiate receptors [4]; compared with naloxone and naltrexone
  selectivity for mu1 class versus naloxone and naltrexone (in words): far more selective for the mu1 class of opiate binding sites

## CN1CC[C@]23c4c5ccc(O)c4O[C@H]2[C@@H](O)C=C[C@H]3[C@H]1C5 [Morphine, morphine]
Growth hormone release; prolactin and growth hormone
  hormone release by morphine (in words): releases both hormones
Prolactin release; prolactin and growth hormone
  hormone release by morphine (in words): releases both hormones
Opiate receptors [4]
  irreversible inhibition of opiate receptor binding / activity (in words): show no irreversible inhibition

## CN1CCC23c4c5ccc(O)c4OC2C(=NN)CCC3(O)C1C5 (stereo not drawn) [Oxymorphazone, oxymorphazone]
[5]
  stability in solution: reaction to azine (in words): no azine formation could be detected
Opiate receptors [2]
  irreversible inhibition of [^3 H]dihydromorphine binding (in words): neither naloxazone nor oxymorphazone irreversibly inhibited the binding
Opiate receptors [2]; [13]
  inhibition at 2 µM: -3%
Opiate receptors [3]
  irreversible inhibition of [^3 H]D-ala^2 -D-leu^5 -enkephalin binding (in words): neither naloxazone nor oxymorphazone irreversibly inhibited the binding
  Change in Binding (Percent), [^3 H]D-ala^2 -D-leu^5 -enkephalin: 43% ± 24

## C=CCN1CCC23c4c5ccc(O)c4OC2C(=NN=C2CCC4(O)C6Cc7ccc(O)c8c7C4(CCN6CC=C)C2O8)CCC3(O)C1C5 (stereo not drawn) [Naloxonazine, naloxonazine]
Duration of action
  duration of action (in words): in the order of days
Duration of action; listed as naloxonazine
  duration of action (in words): lasting far longer than conventional opiates
Opiate receptors [3]; 2 uM, 30 min
  eliminated [^3 H]D-ala^2 -D-leu^5 -enkephalin binding: over 90%
Opiate receptors [3]
  Change in Binding (Percent), [^3 H]D-ala^2 -D-leu^5 -enkephalin: -93% ± 4
Opiate receptors [4]; low doses
  dose reproducing the irreversible blockade of opiate receptor binding by naloxazone: 50 nM

## C=CCN1CCC23c4c5ccc(O)c4OC2C(=NN)CCC3(O)C1C5 (stereo not drawn) [Naloxazone, naloxazone]
Growth hormone release; basal levels
  effect on basal levels of growth hormone, naloxazone (in words): significant reduction in the basal levels of the drugs
Growth hormone release; in vivo
  effect on growth hormone release (in words): actually increased; also recorded: without effecting growth hormone release elicited by morphine
Prolactin release; basal levels
  effect on basal levels of prolactin, naloxazone (in words): significant reduction in the basal levels of the drugs
Prolactin release; in vivo
  depression of morphine-induced release of prolactin: over 80%
  effect on prolactin release (in words): selectively lowering prolactin release
[5]
  stability in solution: reaction to azine (in words): no azine formation could be detected
Opiate receptors [3]
  irreversible inhibition of [^3 H]D-ala^2 -D-leu^5 -enkephalin binding (in words): neither naloxazone nor oxymorphazone irreversibly inhibited the binding
  Change in Binding (Percent), [^3 H]D-ala^2 -D-leu^5 -enkephalin: +15 ± 5%
[11]
  blocking opiate analgesia / effect on opiate-induced lethality (in words): blocking opiate analgesia with little effect on other classes of binding sites or opiate-induced lethality
Opiate receptors [4]; high doses
  dose for irreversible blockade of opiate receptor binding (naloxazone): 2 µM
Rats [12]
  effect on feeding (in words): significant effect as an appetite suppressant
Rats [12]; 1 hour free access to food, 24 hours after drug
  Amounts eaten, individual animals: 3.3 grams and 2.4 grams and 3.5 grams
Rats [12]; 1 hour free access to food, 24 hours after drug, saline 4.78 ± 0.42, significant at the p 0.05 level (ANOVA)
  Amounts eaten, Mean ± SEM: 3.07 ± 0.34 grams

## CN1CCC23c4c5ccc(O)c4OC2C(=NN=C2CCC4(O)C6Cc7ccc(O)c8c7C4(CCN6CC4CC4)C2O8)CCC3(O)C1C5 (stereo not drawn) [Naltrexone-oxymorphonazine, naltrexone-oxymorphonazine]
Opiate receptors [9]
  ^3 H-DHM Binding: 1487 ± 120 cpm
  inhibition at 0.1 µM: 57%
Mice [7]; 10 mg/kg s.c.
  Tailflick Latencies, After 20 min: 2.20 ± 0.35 s
  Tailflick Latencies, After 40 min: 2.29 ± 0.31 s
Mice [7]
  Tailflick Latencies, Prior: 2.44 ± 0.32 s
Mice [7]; doubling of baseline latencies, 10 mg/kg s.c.
  animals analgesic (in words): none of the animals receiving the mixed azine (naltrexone-oxymorphonazine) were analgesic
Mice [7]; in vivo tests of mixed agonist/antagonist compounds
  action in vivo (in words): act as antagonists
Opiate receptors [10]
  ^3 H-DADL Binding: 1205 ± 157 cpm
  ^3 H-DADL Binding, change: -33%
Opiate receptors [4]
  irreversible inhibition of opiate receptor binding / activity (in words): appear to irreversibly bind the opiate receptors

## CN1CC[C@]23c4c5ccc(O)c4O[C@H]2C(=O)CC[C@@]3(O)[C@H]1C5 [Oxymorphone, oxymorphone]
Mice [1]
  Analgesia (percent), 1 hr.: 100%
  Analgesia (percent), 4 hr.: 78%
  Analgesia (percent), 10 hr.: 33%
  Analgesia (percent), 20 hr.: 0%
Opiate receptors [4]
  removal of reversible ligand by washing (in words): effectively removed
